According to US10058525B2, “Application of chlorogenic acid in preparing medicines for treating lupus erythematosus” (SICHUAN JIUZHANG BIOLOGICAL SCIENCE AND TECHNOLOGY CO., LTD., priority 2015, dated 2018):
“Also recorded” adds a separate entry of the source.

Key:
Assay type in all cases: in vivo, BALB/c mice
[1] = test system: ENA polypeptide antibodies (anti-Sm, anti-Rib, anti-ssA, anti-ssB); test: Serologic detection of ENA polypeptide antibodies by immunoblotting in serum of UV + LPS lupus model mice; set-up: key to Anti-Rib: (+): positive; (−): negative; key to Anti-Sm / Anti-ssA / Anti-ssB: (+): positive; (−): negative; (++++): intenseintensity; (+++): stronger fluorescent intensity; settings: for Anti-Rib / Anti-Sm / Anti-ssA / Anti-ssB: intragastric; for ENA polypeptide antibodies found positive (FIG. 1): treated 14 days
Description: The back of mice was shaved and acutely exposed to Ultraviolet of 2 h/d*3 d, with a distance of 30 cm. After exposure to UV, 2.5 mg/kg of LPS was administrated once by ip, and after 24 h, the model was successfully established; the mice in the normal control group received normal saline via ip. 24 h after injection of LPS (ip), medicines were given to the model mice by intragastric administration. Chlorogenic acid test groups received high, middle, and low doses of medicines, by intragastric administration at a respective dosage of 10 mg/kg*d, 20 mg/kg*d, and 40 mg/kg*d. The positive control group A received 2 mg/kg*d of artesunate by stomach perfusion, while the positive control group B received 1 mg/kg*d of prednisone by stomach perfusion. Mice in the model and normal control group all received 0.4 ml/mouse normal saline by gavage. After 15 days of administration, animals in each group were taken blood by separating eyeballs on days 14, 21, 28, and after cultured in water bath at 37° C. for 1 h, the blood sample was centrifugated at 2000 r/min for 5 min, to draw serum for use. On day 21, after blood collection, animals were sacrificed by dislocation, followed by collection of liver and kidney, and they were placed in fixative solutions of electron microscope and light microscrope, respectively. Serum of mice was diluted at 1:100 with special buffer solution of Shenzhen Hengjia, and then 200 μL of diluted serum was respectively added to the reactive tank with corresponding number, cultured in the incubator at 37° C. for 30 min, and washed with the buffer solution four times, 2 min for each time; 200 μL of diluted biotin goat anti-mouse IgG (1:100) was added, cultured in the incubator at 37° C. for 30 min, and then washed with the buffer solution four times, 2 min for each time; 100 μL of diluted HRP-avidin (1:100) was added, cultured in the incubator at 37° C. for 30 min, and then washed as mentioned-above; reactive solutions A and B were added till appearance of positive bands, then washed with the buffer solution. Compared with the standard bands of ENA polypeptide antibody spectrum in the same kit, if the positive bands appeared at 28/29,13.5 ku polypeptide; 15,16.5,38 kupolypeptide; 52 kupolypeptide and 47/48,45 kupolypeptide, that can be determined as anti-Sm, anti-Rib, anti-ssA, and anti-ssB positive antibody. Serum was diluted with PBS at 1:40, then 20-30 μL of diluted serum was dropped into the scrobiculus of HEp-2 cell sheets, each cell sheet for each group. In the process of dropping serum, it should be noted that the surface of cell sheet can not be touched. After addition of serum, cell sheet was placed in wet box and kept for 30 min at room temperature (25° C.). After 30 min, the cell sheet was taken out, and serum was carefully washed out with PBS, then carefully washed twice with PBS, 5 min for each time; after washing, the remained PBS was removed by special absorbent paper of […] company (In this process, it should be noted that becoming dry of cell substrates will affect the results). 20-30 μL of diluted (PBS, 1:100) FITC goat anti-mouse IgG was added by dropping, and then incubated in wet box at room temperature for 30 min. After washing with PBS, steps were same to above. The remained PBS was removed by absorbent paper, and 1-2 drops of fluorescent mounting media were added to the cell sheet. The cover glass was mounted, observed under Olympus BH-2 universal microscope, and then photographed.

ANA = test: Serologic detection of ANA by immunofluorescence on HEp-2 cell sheets, serum of UV + LPS lupus model mice; settings: chlorogenic acid high dose, ×200
Description: The back of mice was shaved and acutely exposed to Ultraviolet of 2 h/d*3 d, with a distance of 30 cm. After exposure to UV, 2.5 mg/kg of LPS was administrated once by ip, and after 24 h, the model was successfully established; the mice in the normal control group received normal saline via ip. 24 h after injection of LPS (ip), medicines were given to the model mice by intragastric administration. Chlorogenic acid test groups received high, middle, and low doses of medicines, by intragastric administration at a respective dosage of 10 mg/kg*d, 20 mg/kg*d, and 40 mg/kg*d. The positive control group A received 2 mg/kg*d of artesunate by stomach perfusion, while the positive control group B received 1 mg/kg*d of prednisone by stomach perfusion. Mice in the model and normal control group all received 0.4 ml/mouse normal saline by gavage. After 15 days of administration, animals in each group were taken blood by separating eyeballs on days 14, 21, 28, and after cultured in water bath at 37° C. for 1 h, the blood sample was centrifugated at 2000 r/min for 5 min, to draw serum for use. On day 21, after blood collection, animals were sacrificed by dislocation, followed by collection of liver and kidney, and they were placed in fixative solutions of electron microscope and light microscrope, respectively. Serum of mice was diluted at 1:100 with special buffer solution of Shenzhen Hengjia, and then 200 μL of diluted serum was respectively added to the reactive tank with corresponding number, cultured in the incubator at 37° C. for 30 min, and washed with the buffer solution four times, 2 min for each time; 200 μL of diluted biotin goat anti-mouse IgG (1:100) was added, cultured in the incubator at 37° C. for 30 min, and then washed with the buffer solution four times, 2 min for each time; 100 μL of diluted HRP-avidin (1:100) was added, cultured in the incubator at 37° C. for 30 min, and then washed as mentioned-above; reactive solutions A and B were added till appearance of positive bands, then washed with the buffer solution. Compared with the standard bands of ENA polypeptide antibody spectrum in the same kit, if the positive bands appeared at 28/29,13.5 ku polypeptide; 15,16.5,38 kupolypeptide; 52 kupolypeptide and 47/48,45 kupolypeptide, that can be determined as anti-Sm, anti-Rib, anti-ssA, and anti-ssB positive antibody. Serum was diluted with PBS at 1:40, then 20-30 μL of diluted serum was dropped into the scrobiculus of HEp-2 cell sheets, each cell sheet for each group. In the process of dropping serum, it should be noted that the surface of cell sheet can not be touched. After addition of serum, cell sheet was placed in wet box and kept for 30 min at room temperature (25° C.). […]

[2] = test system: lupus erythematosus model mice (renal glomerular capsule wall epithelial cells); test: Electron microscope observation of kidney samples, lupus model mice; settings: 21 days
Description: The back of mice was shaved and acutely exposed to Ultraviolet of 2 h/d*3 d, with a distance of 30 cm. After exposure to UV, 2.5 mg/kg of LPS was administrated once by ip, and after 24 h, the model was successfully established; the mice in the normal control group received normal saline via ip. 24 h after injection of LPS (ip), medicines were given to the model mice by intragastric administration. Chlorogenic acid test groups received high, middle, and low doses of medicines, by intragastric administration at a respective dosage of 10 mg/kg*d, 20 mg/kg*d, and 40 mg/kg*d. The positive control group A received 2 mg/kg*d of artesunate by stomach perfusion, while the positive control group B received 1 mg/kg*d of prednisone by stomach perfusion. Mice in the model and normal control group all received 0.4 ml/mouse normal saline by gavage. After 15 days of administration, animals in each group were taken blood by separating eyeballs on days 14, 21, 28, and after cultured in water bath at 37° C. for 1 h, the blood sample was centrifugated at 2000 r/min for 5 min, to draw serum for use. On day 21, after blood collection, animals were sacrificed by dislocation, followed by collection of liver and kidney, and they were placed in fixative solutions of electron microscope and light microscrope, respectively. On day 21, the sample used for observation under electron microscope was fixed in mixed stationary solution of 2% paraformaldehyde+0.25% glutaral for 4 h, rinsed with TBS, treated with 1% osmic acid, followed by fixation for 1 h, rinsed with buffer solution, dehydrated with acetone, dyed with uranyl acetate for 2 h, macerated in Epon812 and embedded, and cut into slices with LEICA ultramicrotome. The slices were stained with lead solution, and the sample was observed under transmission electron microscope when it was dry.

[3] = day 14, chlorogenic acid high dose
[4] = day 14, chlorogenic acid low dose
[5] = day 14, chlorogenic acid middle dose
[6] = day 21, chlorogenic acid high dose
[7] = day 21, chlorogenic acid low dose
[8] = day 21, chlorogenic acid middle dose
[9] = day 28, chlorogenic acid high dose
[10] = day 28, chlorogenic acid low dose
[11] = day 28, chlorogenic acid middle dose

O=C(/C=C/c1ccc(O)c(O)c1)O[C@@H]1C[C@](O)(C(=O)O)C[C@@H](O)[C@H]1O [Chlorogenic acid, 3-O-caffeoylquinic acid]
Anti-Rib [1, 3]: (+)
Anti-Sm [1, 3]: (+)
Anti-ssA [1, 3]: (+)
Anti-ssB [1, 3]: (+)
Anti-Rib [1, 4]: (+)
Anti-Sm [1, 4]: (+)
Anti-ssA [1, 4]: (+)
Anti-ssB [1, 4]: (+)
Anti-Rib [1, 5]: (+)
Anti-Sm [1, 5]: (+)
Anti-ssA [1, 5]: (+)
Anti-ssB [1, 5]: (+)
Anti-Rib [1, 6]: (+)
Anti-Sm [1, 6]: (+)
Anti-ssA [1, 6]: (+)
Anti-ssB [1, 6]: (+)
Anti-Rib [1, 7]: (+)
Anti-Sm [1, 7]: (+)
Anti-ssA [1, 7]: (+)
Anti-ssB [1, 7]: (+)
Anti-Rib [1, 8]: (+)
Anti-Sm [1, 8]: (+)
Anti-ssA [1, 8]: (+)
Anti-ssB [1, 8]: (+)
Anti-Rib [1, 9]: (−)
Anti-Sm [1, 9]: (+)
Anti-ssA [1, 9]: (−)
Anti-ssB [1, 9]: (−)
Anti-Rib [1, 10]: (+)
Anti-Sm [1, 10]: (+)
Anti-ssA [1, 10]: (+)
Anti-ssB [1, 10]: (+)
Anti-Rib [1, 11]: (−)
Anti-Sm [1, 11]: (+)
Anti-ssA [1, 11]: (+)
Anti-ssB [1, 11]: (+)
ENA polypeptide antibodies found positive (FIG. 1) ([1]; high dose of chlorogenic acid): anti-Sm, anti-ssA and anti-ssB bodies are positive
ENA polypeptide antibodies found positive (FIG. 1) ([1]; low dose of chlorogenic acid): anti-Sm, anti-ssA and anti-ssB bodies are positive
ENA polypeptide antibodies found positive (FIG. 1) ([1]; middle dose of chlorogenic acid): anti-Sm, anti-Rib, anti-ssA and anti-ssB bodies are positive
fluorescence intensity of ANA (FIG. 2) (ANA; 14 days): decreases
fluorescence intensity of ANA (FIG. 3) (ANA; 21 days): decreases
fluorescence intensity of ANA (FIG. 4) (ANA; 28 days): decreases
proliferative degree of renal glomerular capsule wall epithelial cells ([2]; chlorogenic acid (all dose groups)): somewhat relieved
proliferative degree of glomerular capsule wall epithelial cells ([2]; high-dose group of chlorogenic acid): somewhat relieves; also recorded: the release degree in high dose group was the most obvious
